Values after ≈ are worked out from the molar mass of the structure shown. Like-named read-outs stand apart in the source and are kept apart here.
Columns and labels:
in vitro [1] = settings: human
in vitro [2] = settings: human, IC50 cytotoxicity Hep 3B
in vitro [3] = settings: human; remark: listed apart in the source
in vitro [4] = settings: human, IC50 cytotoxicity MCF 7
in vitro [5] = settings: human; remark: listed apart in the source
in vitro [6] = settings: human; remark: listed apart in the source
[7] = MTT cytotoxicity assay, MCF 7; settings: human, MCF 7 breast cancer cells, IC50 cytotoxicity MCF 7, MTT
[8] = MTT cytotoxicity assay, A 549; settings: human, A 549 lung cancer cells
[9] = MTT cytotoxicity assay, Hep G2; settings: human, Hep G2 liver cancer cells
[10] = MTT cytotoxicity assay, Hep 3B; settings: human, Hep 3B liver cancer cells, IC50 cytotoxicity Hep 3B
[11] = MTT cytotoxicity assay, Ca9-22; settings: human, Ca9-22 oral cancer cells
[12] = MTT cytotoxicity assay, MDA-MB-231; settings: human, MDA-MB-231 breast cancer cells
influenza A virus (H1N1) = test: microbe, parasite or virus in culture; type: cell-based; settings: for IC50 / IC90: Influenza A virus; for IC50: read-out: IC50, influenza A (H1N1) antiviral activity; for IC90: read-out: IC90, influenza A (H1N1) antiviral activity
[13] = system: Hep G2 liver cancer cell line
[14] = system: Hep 3B liver cancer cell line
[15] = system: MDA-MB-231 breast cancer cell line
[16] = system: MCF 7 breast cancer cell line
[17] = system: Ca9-22 oral cancer cell line
[18] = system: A 549 lung cancer cell line
[19] = system: Ca9-22 oral cancer cell line; test: MTT cytotoxicity assay, Ca9-22; settings: MTT, 3 days
[20] = system: MCF 7 breast cancer cell line; test: MTT cytotoxicity assay, MCF 7; settings: MTT, 3 days
[21] = system: A 549 lung cancer cell line; test: MTT cytotoxicity assay, A 549; settings: MTT, 3 days
[22] = system: Hep G2 liver cancer cell line; test: MTT cytotoxicity assay, Hep G2; settings: MTT, 3 days
[23] = system: Hep 3B liver cancer cell line; test: MTT cytotoxicity assay, Hep 3B; settings: 3 days
[24] = system: MDA-MB-231 breast cancer cell line; test: MTT cytotoxicity assay, MDA-MB-231; settings: MTT, 3 days
[25] = H1N1, 72 h, MDCK cells, XTT, 3 days, concentration achieving 50% cytoprotection
[26] = H1N1, 72 h, MDCK cells, XTT, 3 days
[27] = MDCK cells, XTT, 3 days, concentration achieving 50% cytoprotection

## C[C@@H]1C[C@@H](O)[C@]2(C)[C@@H](C)C(=O)CC[C@H]2[C@]1(C)COc1ccc2ccc(=O)oc2c1 (single isomer, unassigned) [Kamolonol, kamolonol]
In vitro [1]
  IC50 at 3 days: > 20 µg/mL
In vitro [2]
  IC50 at 3 days: 17.9 µg/mL (≈ 45 µM)
In vitro [3]
  IC50 at 3 days: > 20 µg/mL
In vitro [4]
  IC50 at 3 days: > 20 µg/mL
In vitro [5]
  IC50 at 3 days: > 20 µg/mL
In vitro [6]
  IC50 at 3 days: > 20 µg/mL

## C=C1CC[C@]2(C)C(C)(C)[C@@H](OC(C)=O)CC[C@]2(C)[C@H]1COc1ccc2ccc(=O)oc2c1 (single isomer, unassigned) [Polyanthinin, polyanthinin]
In vitro [2]
  IC50 at 3 days: 5.9 µg/mL (≈ 13.5 µM)
In vitro [4]
  IC50 at 3 days: 9.94 µg/mL (≈ 22.7 µM)

## COc1cc(C=O)ccc1O (single isomer, unassigned) [Vanillin, vanillin]
[7]
  IC50 at 3 days: 15.7 µg/mL (≈ 103 µM)
[8]
  IC50 at 3 days: 16.4 µg/mL (≈ 108 µM)
[9]
  IC50 at 3 days: > 20 µg/mL
[10]
  IC50 at 3 days: > 20 µg/mL
[11]
  IC50 at 3 days: > 20 µg/mL
[12]
  IC50 at 3 days: > 20 µg/mL

## NC12CC3CC(CC(C3)C1)C2 [Amantadine, reference compound]
Influenza A virus (H1N1); H1N1, MDCK, 72 h
  IC50: 0.92 ± 0.04 µg/mL (≈ 6.08 µM)
  IC90: 1.73 ± 0.11 µg/mL (≈ 11.4 µM)

## CC(=O)O[C@H](CC/C(C)=C/CC/C(C)=C/COc1ccc2ccc(=O)oc2c1)C(C)(C)O [Compound 2, 10′R-Acetoxy-11′-hydroxyumbelliprenin]
Influenza A virus (H1N1); [25]
  IC50: 0.94 ± 0.07 µg/mL (≈ 2.12 µM)
Influenza A virus (H1N1); [26]
  IC90: 1.98 ± 0.12 µg/mL (≈ 4.47 µM)
In vitro [1]
  IC50 at 3 days: > 20 µg/mL
In vitro [2]
  IC50 at 3 days: 19.8 µg/mL (≈ 44.7 µM)
In vitro [3]
  IC50 at 3 days: > 20 µg/mL
In vitro [4]
  IC50 at 3 days: > 20 µg/mL
In vitro [5]
  IC50 at 3 days: > 20 µg/mL
In vitro [6]
  IC50 at 3 days: > 20 µg/mL

## CC(C)=CCC/C(C)=C/C(O)C/C(C)=C/COc1ccc2ccc(=O)oc2c1 (stereo not drawn) [Compound 4, 5′-hydroxyumbelliprenin]
Influenza A virus (H1N1); MDCK cells, XTT, 3 days
  IC90, influenza A (H1N1) antiviral activity: 0.62 ± 0.08 µg/mL (≈ 1.62 µM)
Influenza A virus (H1N1); [27]
  IC50, influenza A (H1N1) antiviral activity: 0.36 ± 0.03 µg/mL (≈ 0.941 µM)

## C/C(=C\COc1ccc2ccc(=O)oc2c1)CC/C=C(\C)CCC(O)C(C)(C)O (stereo not drawn) [Compound 5, 10′R-karatavicinol]
Influenza A virus (H1N1); MDCK cells, XTT, 3 days
  IC90, influenza A (H1N1) antiviral activity: 2.05 ± 0.14 µg/mL (≈ 5.12 µM)
Influenza A virus (H1N1); [27]
  IC50, influenza A (H1N1) antiviral activity: 0.99 ± 0.07 µg/mL (≈ 2.47 µM)
[13]
  IC50 cytotoxicity Hep G2: >20 µg/mL
[14]
  IC50 cytotoxicity Hep 3B: >20 µg/mL
[15]
  IC50 cytotoxicity MDA-MB-231: >20 µg/mL
[16]
  IC50 cytotoxicity MCF 7: 14.27 µg/mL (≈ 35.6 µM)
[17]
  IC50 cytotoxicity Ca9-22: >20 µg/mL
[18]
  IC50 cytotoxicity A 549: 10.97 µg/mL (≈ 27.4 µM)

## CC(=O)OC(CC=C(C)C)/C(C)=C/[C@@H](O)C/C(C)=C/COc1ccc2ccc(=O)oc2c1 (stereo partly drawn) [Compound 6, 8′-acetoxy-5′S-hydroxyumbelliprenin]
Influenza A virus (H1N1); MDCK cells, XTT, 3 days
  IC90, influenza A (H1N1) antiviral activity: 1.56 ± 0.11 µg/mL (≈ 3.54 µM)
Influenza A virus (H1N1); [27]
  IC50, influenza A (H1N1) antiviral activity: 0.81 ± 0.06 µg/mL (≈ 1.84 µM)
[13]
  IC50 cytotoxicity Hep G2: 15.59 µg/mL (≈ 35.4 µM)
[14]
  IC50 cytotoxicity Hep 3B: 9.82 µg/mL (≈ 22.3 µM)
[15]
  IC50 cytotoxicity MDA-MB-231: >20 µg/mL
[16]
  IC50 cytotoxicity MCF 7: >20 µg/mL
[17]
  IC50 cytotoxicity Ca9-22: 14.23 µg/mL (≈ 32.3 µM)
[18]
  IC50 cytotoxicity A 549: >20 µg/mL

## COC(=O)CC[C@H]1C(=C(C)C)CC[C@H](C)[C@]1(C)COc1ccc2ccc(=O)oc2c1 [Compound 7, methyl galbanate]
Influenza A virus (H1N1); [25]
  IC50: 0.26 ± 0.03 µg/mL (≈ 0.63 µM)
Influenza A virus (H1N1); [26]
  IC90: 0.44 ± 0.05 µg/mL (≈ 1.07 µM)
In vitro [2]
  IC50 at 3 days: 4.33 µg/mL (≈ 10.5 µM)
In vitro [4]
  IC50 at 3 days: > 20 µg/mL

## CC(C)=C1CC[C@H](C)[C@](C)(COc2ccc3ccc(=O)oc3c2)[C@H]1CCC(=O)O [Compound 8, galbanic acid]
Influenza A virus (H1N1); [25]
  IC50: 0.45 ± 0.04 µg/mL (≈ 1.13 µM)
Influenza A virus (H1N1); [26]
  IC90: 0.88 ± 0.07 µg/mL (≈ 2.21 µM)

## C/C(=C\COc1ccc2ccc(=O)oc2c1)CC[C@@H]1C(C)(C)[C@H]2CC[C@]1(C)O2 [Compound 9, farnesiferol C]
Influenza A virus (H1N1); MDCK cells, XTT, 3 days
  IC90, influenza A (H1N1) antiviral activity: 0.50 ± 0.07 µg/mL (≈ 1.31 µM)
Influenza A virus (H1N1); [27]
  IC50, influenza A (H1N1) antiviral activity: 0.29 ± 0.02 µg/mL (≈ 0.758 µM)

## C=C1CC[C@@H]2C(C)(C)[C@H](O)CC[C@@]2(C)[C@H]1COc1ccc2ccc(=O)oc2c1 [Compound 10, farnesiferol A]
Influenza A virus (H1N1); MDCK cells, XTT, 3 days
  IC90, influenza A (H1N1) antiviral activity: 0.64 ± 0.07 µg/mL (≈ 1.67 µM)
Influenza A virus (H1N1); [27]
  IC50, influenza A (H1N1) antiviral activity: 0.51 ± 0.04 µg/mL (≈ 1.33 µM)
[13]
  IC50 cytotoxicity Hep G2: 14.89 µg/mL (≈ 38.9 µM)
[14]
  IC50 cytotoxicity Hep 3B: 7.66 µg/mL (≈ 20 µM)
[15]
  IC50 cytotoxicity MDA-MB-231: 19.00 µg/mL (≈ 49.7 µM)
[16]
  IC50 cytotoxicity MCF 7: 15.57 µg/mL (≈ 40.7 µM)
[18]
  IC50 cytotoxicity A 549: 15.79 µg/mL (≈ 41.3 µM)
[19]
  IC50 cytotoxicity Ca9-22: 12.07 µg/mL (≈ 31.6 µM)

## CC1=CC[C@@H]2C(C)(C)[C@@H](O)CC[C@@]2(C)[C@@H]1COc1ccc2ccc(=O)oc2c1 [Compound 11, conferol]
Influenza A virus (H1N1); [25]
  IC50: 0.47 ± 0.05 µg/mL (≈ 1.23 µM)
Influenza A virus (H1N1); [26]
  IC90: 0.83 ± 0.09 µg/mL (≈ 2.17 µM)
[14]; human, 3 days
  IC50 cytotoxicity Hep 3B: 2.63 µg/mL (≈ 6.88 µM)
[16]; human, 3 days
  IC50 cytotoxicity MCF 7: 3.38 µg/mL (≈ 8.84 µM)
In vitro [2]
  IC50 at 3 days: 2.6 µg/mL (≈ 6.8 µM)
In vitro [4]
  IC50 at 3 days: 3.4 µg/mL (≈ 8.89 µM)

## CC1=CC(=O)[C@@H]2C(C)(C)[C@H](O)CC[C@@]2(C)[C@@H]1COc1ccc2ccc(=O)oc2c1 [Compound 12, ligupersin A]
Influenza A virus (H1N1); MDCK cells, XTT, 3 days
  IC90, influenza A (H1N1) antiviral activity: 1.75 ± 0.12 µg/mL (≈ 4.41 µM)
Influenza A virus (H1N1); [27]
  IC50, influenza A (H1N1) antiviral activity: 0.86 ± 0.08 µg/mL (≈ 2.17 µM)

## CC1=CC(=O)[C@@H]2C(C)(C)C(=O)CC[C@@]2(C)[C@@H]1COc1ccc2ccc(=O)oc2c1 [Compound 13, epi-conferdione]
Influenza A virus (H1N1); MDCK cells, XTT, 3 days
  IC90, influenza A (H1N1) antiviral activity: 0.37 ± 0.03 µg/mL (≈ 0.938 µM)
Influenza A virus (H1N1); [27]
  IC50, influenza A (H1N1) antiviral activity: 0.32 ± 0.02 µg/mL (≈ 0.811 µM)

## COc1cccc2c1C(=O)c1c(O)c3c(c(O)c1C2=O)C[C@@](O)(C(=O)CO)C[C@@H]3O[C@H]1C[C@H](N)[C@H](O)[C@H](C)O1 [Doxorubicin, reference compound]
[8]
  IC50 at 3 days: 0.35 µg/mL (≈ 0.644 µM)
[9]
  IC50 at 3 days: 0.16 µg/mL (≈ 0.294 µM)
[10]
  IC50 at 3 days: 0.41 µg/mL (≈ 0.754 µM)
[11]
  IC50 at 3 days: 0.14 µg/mL (≈ 0.258 µM)

## foetisulfide C
[20]
  IC50 cytotoxicity MCF 7: >20 µg/mL
[21]
  IC50 cytotoxicity A 549: 9.14 µg/mL
[22]
  IC50 cytotoxicity Hep G2: >20 µg/mL
[23]
  IC50 cytotoxicity Hep 3B: 19.21 µg/mL
[19]
  IC50 cytotoxicity Ca9-22: 16.48 µg/mL
[24]
  IC50 cytotoxicity MDA-MB-231: >20 µg/mL
